Results published in US20250339399A1, “SUPRAMOLECULAR SELF-ASSEMBLY SYSTEM” (Beijing Creatron Institute of Pharmaceutical Research Co., …, priority 2022, published 2025).
Where “and” joins values, the source holds several entries; their conditions need not be identical. Equal entries are not always repeated. One block for each molecule: values may come before it.

Key:
[1] = cited from earlier work
[2] = Guest molecule concentration after incubation in initial medium without polymer (Comparative Example 1); format: physicochemical; settings: 37° C.
Outline: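 Dissolved guest content measured by HPLC of centrifuged supernatants (37° C., 13000 rpm, 5 min) sampled at 0.5 h, 3 h and 6 h. Incubation was polymer-free at 37° C.±0.5° C. in buffers of pH 2.0-7.4; nominal loading was set by maximum clinical dose.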

[3] = Binary supramolecular self-assembly systems of polymer and target: guest concentration over incubation time (Comparative Example 2); format: physicochemical
Procedure: Experiments were conducted according to the steps in Comparative Example 1, and quantitative analysis was carried out using the analytical method for each target to investigate the regulation ability […] stacking.

[4] = Binary (carrier), ternary and quaternary supramolecular self-assembly systems of polymer, carrier building block and target: guest concentration over incubation time (Examples 1-56); format: physicochemical
Outline: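 Targets were incubated at 37 °C in pH 2.0–7.4 buffers with 0.5% polymer alone or with carrier building blocks, after 0.5 h sonication for ternary systems, and shaken at 200 rpm. Samples at 0.5–6 h were centrifuged and diluted ≥10-fold, and dissolved target was quantified by HPLC; surfactant was added if needed.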

[5] = binary system with 0.5% polymer 101, incubation 0.5 h
[6] = binary system with 0.5% polymer 101, incubation 3 h
[7] = binary system with 0.5% polymer 101, incubation 6 h
[8] = binary system with 0.5% polymer 102, incubation 0.5 h
[9] = binary system with 0.5% polymer 102, incubation 3 h
[10] = binary system with 0.5% polymer 102, incubation 6 h
[11] = binary system with 0.5% polymer 103, incubation 0.5 h
[12] = binary system with 0.5% polymer 103, incubation 3 h
[13] = binary system with 0.5% polymer 103, incubation 6 h
[14] = binary system with 0.5% polymer 104, incubation 0.5 h
[15] = binary system with 0.5% polymer 104, incubation 3 h
[16] = binary system with 0.5% polymer 104, incubation 6 h
[17] = binary system with 0.5% polymer 106, incubation 0.5 h
[18] = binary system with 0.5% polymer 106, incubation 3 h
[19] = binary system with 0.5% polymer 106, incubation 6 h
[20] = binary system with 0.5% polymer 107, incubation 0.5 h
[21] = binary system with 0.5% polymer 107, incubation 3 h
[22] = binary system with 0.5% polymer 107, incubation 6 h
[23] = 0.25% 205 (102H+104) + 0.25% 301, 6 h
[24] = binary, no polymer: 0.5% 301, 6 h
[25] = quaternary: 204 (102H+103E5) + 0.5% 301, 6 h
[26] = ternary: 102H (0.25% where stated) + 301, carrier % not stated, 6 h
[27] = ternary: 102H (0.25% where stated) + 302, carrier % not stated, 6 h
[28] = ternary: 102H + 313, carrier % not given, 6 h
[29] = ternary: 102H + 313 at further increased mass percentage, 6 h
[30] = ternary: 102H + 318 at further increased mass percentage, 6 h
[31] = system built by polymers 102H and 103E3 with carrier 302, 6 h

Concentration of guest molecule measured after different incubated time ([2]; 0.5 h, 0.05% Tween 20 in pH 6.8 phosphate buffer): 16.5 µg/mL
Concentration of guest molecule measured after different incubated time ([2]; 3 h, 0.05% Tween 20 in pH 6.8 phosphate buffer): 17.9 µg/mL
Concentration of guest molecule measured after different incubated time ([2]; 6 h, 0.05% Tween 20 in pH 6.8 phosphate buffer): 18.4 µg/mL
Concentration of the target in the solution measured after different incubation time [3, 5]: 48.5 µg/mL
Concentration of the target in the solution measured after different incubation time [3, 6]: 93.5 µg/mL
Concentration of the target in the solution measured after different incubation time [3, 7]: 95.3 µg/mL
Concentration of the target in the solution measured after different incubation time [3, 8]: 168.1 µg/mL
Concentration of the target in the solution measured after different incubation time [3, 9]: 176.4 µg/mL
Concentration of the target in the solution measured after different incubation time [3, 10]: 154.5 µg/mL
Concentration of the target in the solution measured after different incubation time [3, 11]: 44.1 µg/mL
Concentration of the target in the solution measured after different incubation time [3, 12]: 17.8 µg/mL
Concentration of the target in the solution measured after different incubation time [3, 13]: 17.1 µg/mL
Concentration of the target in the solution measured after different incubation time [3, 14]: 13.4 µg/mL
Concentration of the target in the solution measured after different incubation time [3, 15]: 13.7 µg/mL
Concentration of the target in the solution measured after different incubation time [3, 16]: 14.3 µg/mL
Concentration of the target in the solution measured after different incubation time [3, 17]: 33.8 µg/mL
Concentration of the target in the solution measured after different incubation time [3, 18]: 65.9 µg/mL
Concentration of the target in the solution measured after different incubation time [3, 19]: 68.4 µg/mL
Concentration of the target in the solution measured after different incubation time [3, 20]: 47.9 µg/mL
Concentration of the target in the solution measured after different incubation time [3, 21]: 53.1 µg/mL
Concentration of the target in the solution measured after different incubation time [3, 22]: 56.0 µg/mL
Concentration of guest molecule in solution ([3]; binary: 0.25% 102H, 6 h): 260.2 µg/mL
Times that of the initial medium ([3]; binary: 0.25% 102H, 6 h): 14 times and 14.5 times
Concentration of guest molecule in solution [4, 23]: 157.4 µg/mL
Times that of the initial medium [4, 23]: 8.6 times
Concentration of guest molecule in solution [4, 24]: 156.9 µg/mL
Times that of the initial medium [4, 24]: 8.5 times
Concentration of guest molecule in solution [4, 25]: 206.4 µg/mL
Times that of the initial medium [4, 25]: 11 times
Encapsulation rate for the guest molecule ([4]; ternary: 0.25% 102H + 0.5% 319): ~100%
Concentration of guest molecule in solution [4, 26]: 446.0 µg/mL
Times that of the initial medium [4, 26]: about 25 times
Concentration of guest molecule in solution [4, 27]: 410.7 µg/mL
Times that of the initial medium [4, 27]: 22 times
Concentration of guest molecule in solution [4, 28]: 436.6 µg/mL
Encapsulation rate for the guest molecule ([4]; ternary: 102H + 313 at further increased mass percentage): ~100%
Concentration of guest molecule in solution [4, 29]: 792.1 µg/mL
Times that of the initial medium [4, 29]: 43 times
Concentration of guest molecule in solution ([4]; ternary: 102H + 318, carrier % not stated, 6 h): 429.9 µg/mL
Concentration of guest molecule in solution [4, 30]: 774.7 µg/mL
Times that of the initial medium [4, 30]: 42 times
Structure (SMILES): C=CC(=O)N1CCC[C@@H](n2nc(-c3ccc(Oc4ccccc4)cc3)c3c(N)ncnc32)C1 [Ibrutinib]
LogD7.4 or Log P [1]: 3.63

Concentration of guest molecule measured after different incubated time ([2]; 0.5 h, pH 6.5 phosphate buffer): 252.2 µg/mL
Concentration of guest molecule measured after different incubated time ([2]; 3 h, pH 6.5 phosphate buffer): 246.4 µg/mL
Concentration of guest molecule measured after different incubated time ([2]; 6 h, pH 6.5 phosphate buffer): 246.0 µg/mL
Concentration of the target in the solution measured after different incubation time [3, 5]: 555.9 µg/mL
Concentration of the target in the solution measured after different incubation time [3, 6]: 229.5 µg/mL
Concentration of the target in the solution measured after different incubation time [3, 7]: 230.7 µg/mL
Concentration of the target in the solution measured after different incubation time [3, 8]: 258.9 µg/mL
Concentration of the target in the solution measured after different incubation time [3, 9]: 245.3 µg/mL
Concentration of the target in the solution measured after different incubation time [3, 10]: 244.5 µg/mL
Concentration of the target in the solution measured after different incubation time [3, 11]: 234.7 µg/mL
Concentration of the target in the solution measured after different incubation time [3, 12]: 230.8 µg/mL
Concentration of the target in the solution measured after different incubation time [3, 13]: 233.8 µg/mL
Concentration of the target in the solution measured after different incubation time [3, 17]: 240.7 µg/mL
Concentration of the target in the solution measured after different incubation time [3, 18]: 244.6 µg/mL
Concentration of the target in the solution measured after different incubation time [3, 19]: 241.9 µg/mL
Concentration of the target in the solution measured after different incubation time [3, 20]: 242.4 µg/mL
Concentration of the target in the solution measured after different incubation time [3, 21]: 240.0 µg/mL
Concentration of the target in the solution measured after different incubation time [3, 22]: 243.7 µg/mL
Concentration of the target in the solution measured after different incubation time ([3]; binary system with 0.5% polymer 110, incubation 0.5 h): 240.5 µg/mL
Concentration of the target in the solution measured after different incubation time ([3]; binary system with 0.5% polymer 110, incubation 3 h): 253.9 µg/mL
Concentration of the target in the solution measured after different incubation time ([3]; binary system with 0.5% polymer 110, incubation 6 h): 252.1 µg/mL
Concentration of guest molecule in solution ([4]; ternary: 0.25% 102M + 0.25% 313, 2 h): 480.3 µg/mL
Concentration of guest molecule in solution ([4]; ternary: 0.25% 102M + 0.25% 313, 6 h): 650.6 µg/mL
Concentration of guest molecule in solution ([4]; ternary: 0.25% 102M + 0.25% 313, 10 h): 1026.3 µg/mL
Concentration of guest molecule in solution ([4]; ternary: 0.25% 102M + 0.25% 314, 2 h): 1103.4 µg/mL
Concentration of guest molecule in solution ([4]; ternary: 0.25% 102M + 0.25% 314, 6 h): 406.8 µg/mL
Concentration of guest molecule in solution ([4]; ternary: 0.25% 102M + 0.25% 318, 2 h): 521.5 µg/mL
Concentration of guest molecule in solution ([4]; ternary: 0.25% 102M + 0.25% 318, 6 h): 754.1 µg/mL
Concentration of guest molecule in solution ([4]; ternary: 0.25% 102M + 0.25% 318, 10 h): 1310.2 µg/mL
Concentration of guest molecule in solution ([4]; ternary: 0.25% 102M + 0.25% 319, 2 h): 413.5 µg/mL
Concentration of guest molecule in solution ([4]; ternary: 0.25% 102M + 0.25% 319, 6 h): 643.7 µg/mL
Concentration of guest molecule in solution ([4]; ternary: 0.25% 102M + 0.25% 319, 10 h): 1125.6 µg/mL
Structure (SMILES): CCCCC1OC(=O)c2ccccc21 (stereo not shown) [Butylphthalide]
LogD7.4 or Log P [1]: 3.36

Concentration of guest molecule measured after different incubated time ([2]; 0.5 h, 0.05% SDS in pH 6.8 phosphate buffer): 35.2 µg/mL
Concentration of guest molecule measured after different incubated time ([2]; 3 h, 0.05% SDS in pH 6.8 phosphate buffer): 24.2 µg/mL
Concentration of guest molecule measured after different incubated time ([2]; 6 h, 0.05% SDS in pH 6.8 phosphate buffer): 17.9 µg/mL
Concentration of the target in the solution measured after different incubation time [3, 5]: 117.0 µg/mL
Concentration of the target in the solution measured after different incubation time [3, 6]: 145.8 µg/mL
Concentration of the target in the solution measured after different incubation time [3, 7]: 149.9 µg/mL
Concentration of the target in the solution measured after different incubation time [3, 8]: 96.7 µg/mL
Concentration of the target in the solution measured after different incubation time [3, 9]: 188.9 µg/mL
Concentration of the target in the solution measured after different incubation time [3, 10]: 189.9 µg/mL
Concentration of the target in the solution measured after different incubation time [3, 11]: 125.2 µg/mL
Concentration of the target in the solution measured after different incubation time [3, 12]: 159.3 µg/mL
Concentration of the target in the solution measured after different incubation time [3, 13]: 181.5 µg/mL
Concentration of the target in the solution measured after different incubation time [3, 14]: 77.5 µg/mL
Concentration of the target in the solution measured after different incubation time [3, 15]: 84.9 µg/mL
Concentration of the target in the solution measured after different incubation time [3, 16]: 61.4 µg/mL
Concentration of the target in the solution measured after different incubation time [3, 17]: 121.2 µg/mL
Concentration of the target in the solution measured after different incubation time [3, 18]: 81.8 µg/mL
Concentration of the target in the solution measured after different incubation time [3, 19]: 50.0 µg/mL
Concentration of the target in the solution measured after different incubation time [3, 20]: 107.2 µg/mL
Concentration of the target in the solution measured after different incubation time [3, 21]: 62.3 µg/mL
Concentration of the target in the solution measured after different incubation time [3, 22]: 52.3 µg/mL
Times that of the initial medium ([3]; binary: 0.5% 102H, 6 h): about 8.5 times
Times that of the initial medium ([3]; binary: 0.5% 104, 6 h): ~2.7 times
Concentration of guest molecule in solution [4, 31]: 391.1 µg/mL
Encapsulation rate for the guest molecule [4, 31]: 97.8%
Concentration of guest molecule in solution [4, 26]: 227.2 µg/mL
Times that of the initial medium [4, 26]: 10 times
Concentration of guest molecule in solution ([4]; ternary: 102H + 310, carrier % not stated, 6 h): 317.6 µg/mL
Concentration of guest molecule in solution [4, 28]: 365.2 µg/mL
Concentration of guest molecule in solution ([4]; ternary: 102M + 310, 6 h): 344.0 µg/mL
Concentration of guest molecule in solution ([4]; ternary: 102M + 313, 6 h): 328.9 µg/mL
Structure (SMILES): Cc1cn(-c2cc(NC(=O)c3ccc(C)c(Nc4nccc(-c5cccnc5)n4)c3)cc(C(F)(F)F)c2)cn1 [Nilotinib]
Dissociation constant ([1]; basic drug): 5.92
LogD7.4 or Log P [1]: 5.35
Log D6.8 ([1]; pH 6.8): 5.27
